Patent US12545639B2, “3-substituted phenylamidine compounds, preparation and use thereof” (PI INDUSTRIES LTD., priority 2019, dated 2026)

Key:
Phakopsora pachyrhizi = Phakopsora pachyrhizi test in soybean, preventive, in vivo on plants; settings: in Glycine max, read-out: Efficacy (% control), disease severity compared to the untreated check
Botrytis cinerea = Botrytis cinerea (gray mold) in vitro test, radial growth on potato dextrose agar; format: cell-based; settings: 168 h, 300 ppm in potato dextrose agar, 22° C., 90% relative humidity, seven days, read-out: control compared to the untreated check (radial growth)
Alternaria solani = Alternaria solani (early blight of tomato/potato) in vitro test, radial growth on potato dextrose agar; format: cell-based; settings: 168 h, 300 ppm in potato dextrose agar, 25° C., 60% relative humidity, seven days, read-out: control compared to the untreated check (radial growth)
Colletotrichum capsici = Colletotrichum capsici (anthracnose) in vitro test, radial growth on potato dextrose agar; format: cell-based; settings: Colletotrichum truncatum, 168 h; 300 ppm in potato dextrose agar; 25° C., 60% relative humidity, seven days; read-out: control compared to the untreated check (radial growth)
Fusarium culmorum = Fusarium culmorum (foot rot of cereals) in vitro test, radial growth on potato dextrose agar; format: cell-based; settings: 168 h, 300 ppm in potato dextrose agar, 25° C., 60% relative humidity, seven days, read-out: control compared to the untreated check (radial growth)
How it was run: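 Compound in 0.3% DMSO mixed into potato dextrose agar, plates seeded with a 5 mm mycelial disc from an actively growing virulent culture. After seven days at 25° C and 60% relative humidity, radial growth was measured against untreated control.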

[1] = tested on: Septoria lycopersici/Corynespora cassicola (CORYCA); experiment: Septoria lycopersici/Corynespora cassicola (CORYCA) (leaf spot of tomato) in vitro test, radial growth on potato dextrose agar; format: cell-based; settings: 168 h, 300 ppm in potato dextrose agar, 25° C., 70% relative humidity, seven days, read-out: control compared to the untreated check (radial growth)
Pyricularia oryzae = experiment: microbe, parasite or virus in culture; format: cell-based; settings: 168 h, read-out: control compared to the untreated check (radial growth)
Rhizoctonia solani = Rhizoctonia solani (rice sheath blight/potato black scurf) in vitro test, radial growth on potato dextrose agar; format: cell-based; settings: 168 h, 300 ppm in potato dextrose agar, 25° C., 60% relative humidity, seven days, read-out: control compared to the untreated check (radial growth)

CCN(C)C=Nc1cc(C)cc(Cc2cccc(Cl)c2F)c1Cl [Compound 56, N′-(2-chloro-3-(3-chloro-2-fluorobenzyl)-5-methylphenyl)-N-ethyl-N-methylformimidamide]
≥ 70%: pest or weed control at 500 ppm (Phakopsora pachyrhizi) | inhibition of growth at 300 ppm (Botrytis cinerea) | inhibition of growth at 300 ppm (Alternaria solani) | inhibition of growth at 300 ppm (Colletotrichum capsici) | inhibition of growth at 300 ppm (Fusarium culmorum) | inhibition of growth at 300 ppm [1] | inhibition of growth at 300 ppm (Pyricularia oryzae) | inhibition of growth at 300 ppm (Rhizoctonia solani)

CCN(C)C=Nc1cc(Cl)cc(Cc2ccc(F)cc2)c1C [Compound 124, N′-(5-chloro-3-(4-fluorobenzyl)-2-methylphenyl)-N-ethyl-N-methylformimidamide]
≥ 70%: pest or weed control at 500 ppm (Phakopsora pachyrhizi) | inhibition of growth at 300 ppm (Botrytis cinerea) | inhibition of growth at 300 ppm (Alternaria solani) | inhibition of growth at 300 ppm (Colletotrichum capsici) | inhibition of growth at 300 ppm (Fusarium culmorum) | inhibition of growth at 300 ppm [1] | inhibition of growth at 300 ppm (Pyricularia oryzae) | inhibition of growth at 300 ppm (Rhizoctonia solani)

CCN(C)C=Nc1cc(F)cc(Cc2ccc(Br)cc2F)c1C [Compound 236, N′-(3-(4-bromo-2-fluorobenzyl)-5-fluoro-2-methylphenyl)-N-ethyl-N-methylformimidamide]
≥ 70%: pest or weed control at 500 ppm (Phakopsora pachyrhizi) | inhibition of growth at 300 ppm (Botrytis cinerea) | inhibition of growth at 300 ppm (Alternaria solani) | inhibition of growth at 300 ppm (Colletotrichum capsici) | inhibition of growth at 300 ppm (Fusarium culmorum) | inhibition of growth at 300 ppm [1] | inhibition of growth at 300 ppm (Pyricularia oryzae) | inhibition of growth at 300 ppm (Rhizoctonia solani)

CCN(C)C=Nc1cc(F)cc(Nc2cc(F)cc(F)c2)c1C [Compound 77, N′-(3-((3,5-difluorophenyl)amino)-5-fluoro-2-methylphenyl)-N-ethyl-N-methylformimidamide]
≥ 70%: pest or weed control at 500 ppm (Phakopsora pachyrhizi) | inhibition of growth at 300 ppm (Botrytis cinerea) | inhibition of growth at 300 ppm (Alternaria solani) | inhibition of growth at 300 ppm (Colletotrichum capsici) | inhibition of growth at 300 ppm (Fusarium culmorum) | inhibition of growth at 300 ppm [1] | inhibition of growth at 300 ppm (Pyricularia oryzae) | inhibition of growth at 300 ppm (Rhizoctonia solani)

CCN(C)C=Nc1cc(C)cc(Cc2ccccc2Cl)c1C [Compound 220, N′-(3-(2-chlorobenzyl)-2,5-dimethylphenyl)-N-ethyl-N-methylformimidamide]
≥ 70%: pest or weed control at 500 ppm (Phakopsora pachyrhizi) | inhibition of growth at 300 ppm (Botrytis cinerea) | inhibition of growth at 300 ppm (Alternaria solani) | inhibition of growth at 300 ppm (Colletotrichum capsici) | inhibition of growth at 300 ppm (Fusarium culmorum) | inhibition of growth at 300 ppm [1] | inhibition of growth at 300 ppm (Pyricularia oryzae) | inhibition of growth at 300 ppm (Rhizoctonia solani)

CCN(C)C=Nc1cc(OC)cc(Cc2ccc(Br)cc2)c1C [Compound 287, N′-(3-(4-bromobenzyl)-5-methoxy-2-methylphenyl)-N-ethyl-N-methylformimidamide]
≥ 70%: pest or weed control at 500 ppm (Phakopsora pachyrhizi) | inhibition of growth at 300 ppm (Botrytis cinerea) | inhibition of growth at 300 ppm (Alternaria solani) | inhibition of growth at 300 ppm (Colletotrichum capsici) | inhibition of growth at 300 ppm (Fusarium culmorum) | inhibition of growth at 300 ppm [1] | inhibition of growth at 300 ppm (Pyricularia oryzae) | inhibition of growth at 300 ppm (Rhizoctonia solani)

CCN(C)C=Nc1cc(OC)cc(Cc2ccc(C)cc2)c1C [Compound 263, N-ethyl-N′-(5-methoxy-2-methyl-3-(4-methylbenzyl)phenyl)-N-methylformimidamide]
≥ 70%: pest or weed control at 500 ppm (Phakopsora pachyrhizi) | inhibition of growth at 300 ppm (Botrytis cinerea) | inhibition of growth at 300 ppm (Alternaria solani) | inhibition of growth at 300 ppm (Colletotrichum capsici) | inhibition of growth at 300 ppm (Fusarium culmorum) | inhibition of growth at 300 ppm [1] | inhibition of growth at 300 ppm (Pyricularia oryzae) | inhibition of growth at 300 ppm (Rhizoctonia solani)

CCN(C)C=Nc1cc(C)cc(Cc2cccc(C)c2)c1C [Compound 208, N′-(2,5-dimethyl-3-(3-methylbenzyl)phenyl)-N-ethyl-N-methylformimidamide]
≥ 70%: pest or weed control at 500 ppm (Phakopsora pachyrhizi) | inhibition of growth at 300 ppm (Botrytis cinerea) | inhibition of growth at 300 ppm (Alternaria solani) | inhibition of growth at 300 ppm (Colletotrichum capsici) | inhibition of growth at 300 ppm (Fusarium culmorum) | inhibition of growth at 300 ppm [1] | inhibition of growth at 300 ppm (Pyricularia oryzae) | inhibition of growth at 300 ppm (Rhizoctonia solani)

CCN(C)C=Nc1cc(Cl)cc(Cc2ccc(Cl)cc2)c1C [Compound 126, N′-(5-chloro-3-(4-chlorobenzyl)-2-methylphenyl)-N-ethyl-N-methylformimidamide]
≥ 70%: pest or weed control at 500 ppm (Phakopsora pachyrhizi) | inhibition of growth at 300 ppm (Botrytis cinerea) | inhibition of growth at 300 ppm (Alternaria solani) | inhibition of growth at 300 ppm (Colletotrichum capsici) | inhibition of growth at 300 ppm (Fusarium culmorum) | inhibition of growth at 300 ppm [1] | inhibition of growth at 300 ppm (Pyricularia oryzae) | inhibition of growth at 300 ppm (Rhizoctonia solani)

CCN(C)C=Nc1cc(F)cc(Nc2ccc(C(C)(C)C)cc2)c1C [Compound 20, N′-(3-((4-(tert-butyl)phenyl)amino)-5-fluoro-2-methylphenyl)-N-ethyl-N-methylformimidamide]
≥ 70%: pest or weed control at 500 ppm (Phakopsora pachyrhizi) | inhibition of growth at 300 ppm (Botrytis cinerea) | inhibition of growth at 300 ppm (Alternaria solani) | inhibition of growth at 300 ppm (Colletotrichum capsici) | inhibition of growth at 300 ppm (Fusarium culmorum) | inhibition of growth at 300 ppm [1] | inhibition of growth at 300 ppm (Pyricularia oryzae) | inhibition of growth at 300 ppm (Rhizoctonia solani)

CCN(C)C=Nc1cc(C)cc(Cc2ccccc2)c1C [Compound 207, N′-(3-benzyl-2,5-dimethylphenyl)-N-ethyl-N-methylformimidamide]
≥ 70%: pest or weed control at 500 ppm (Phakopsora pachyrhizi) | inhibition of growth at 300 ppm (Botrytis cinerea) | inhibition of growth at 300 ppm (Alternaria solani) | inhibition of growth at 300 ppm (Colletotrichum capsici) | inhibition of growth at 300 ppm (Fusarium culmorum) | inhibition of growth at 300 ppm [1] | inhibition of growth at 300 ppm (Pyricularia oryzae) | inhibition of growth at 300 ppm (Rhizoctonia solani)

CCN(C)C=Nc1cc(C)cc(Nc2ccc(Cl)cc2)c1Cl [Compound 59, N′-(2-chloro-3-((4-chlorophenyl)amino)-5-methylphenyl)-N-ethyl-N-methylformimidamide]
≥ 70%: pest or weed control at 500 ppm (Phakopsora pachyrhizi) | inhibition of growth at 300 ppm (Botrytis cinerea) | inhibition of growth at 300 ppm (Alternaria solani) | inhibition of growth at 300 ppm (Colletotrichum capsici) | inhibition of growth at 300 ppm (Fusarium culmorum) | inhibition of growth at 300 ppm [1] | inhibition of growth at 300 ppm (Pyricularia oryzae) | inhibition of growth at 300 ppm (Rhizoctonia solani)

CCN(C)C=Nc1cc(F)cc(Cc2ccc(F)cc2)c1C [Compound 204, N-ethyl-N′-(5-fluoro-3-(4-fluorobenzyl)-2-methylphenyl)-N-methylformimidamide]
≥ 70%: pest or weed control at 500 ppm (Phakopsora pachyrhizi) | inhibition of growth at 300 ppm (Botrytis cinerea) | inhibition of growth at 300 ppm (Alternaria solani) | inhibition of growth at 300 ppm (Colletotrichum capsici) | inhibition of growth at 300 ppm (Fusarium culmorum) | inhibition of growth at 300 ppm [1] | inhibition of growth at 300 ppm (Pyricularia oryzae) | inhibition of growth at 300 ppm (Rhizoctonia solani)

CCN(C)C=Nc1cc(Cl)cc(Cc2ccc(F)c(F)c2)c1C [Compound 129, N′-(5-chloro-3-(3,4-difluorobenzyl)-2-methylphenyl)-N-ethyl-N-methylformimidamide]
≥ 70%: pest or weed control at 500 ppm (Phakopsora pachyrhizi) | inhibition of growth at 300 ppm (Botrytis cinerea) | inhibition of growth at 300 ppm (Alternaria solani) | inhibition of growth at 300 ppm (Colletotrichum capsici) | inhibition of growth at 300 ppm (Fusarium culmorum) | inhibition of growth at 300 ppm [1] | inhibition of growth at 300 ppm (Pyricularia oryzae) | inhibition of growth at 300 ppm (Rhizoctonia solani)

CCN(C)C=Nc1cc(Cl)cc(Cc2ccc(Br)cc2)c1C [Compound 125, N′-(3-(4-bromobenzyl)-5-chloro-2-methylphenyl)-N-ethyl-N-methylformimidamide]
≥ 70%: pest or weed control at 500 ppm (Phakopsora pachyrhizi) | inhibition of growth at 300 ppm (Botrytis cinerea) | inhibition of growth at 300 ppm (Alternaria solani) | inhibition of growth at 300 ppm (Colletotrichum capsici) | inhibition of growth at 300 ppm (Fusarium culmorum) | inhibition of growth at 300 ppm [1] | inhibition of growth at 300 ppm (Pyricularia oryzae) | inhibition of growth at 300 ppm (Rhizoctonia solani)

CCN(C)C=Nc1cc(C)cc(Cc2ccc(F)cc2)c1C [Compound 222, N-ethyl-N′-(3-(4-fluorobenzyl)-2,5-dimethylphenyl)-N-methylformimidamide]
≥ 70%: pest or weed control at 500 ppm (Phakopsora pachyrhizi) | inhibition of growth at 300 ppm (Botrytis cinerea) | inhibition of growth at 300 ppm (Alternaria solani) | inhibition of growth at 300 ppm (Colletotrichum capsici) | inhibition of growth at 300 ppm (Fusarium culmorum) | inhibition of growth at 300 ppm [1] | inhibition of growth at 300 ppm (Pyricularia oryzae) | inhibition of growth at 300 ppm (Rhizoctonia solani)

CCN(C)C=Nc1cc(C)cc(Cc2ccc(F)cc2)c1Cl [Compound 44, N′-(2-chloro-3-(4-fluorobenzyl)-5-methylphenyl)-N-ethyl-N-methylformimidamide]
≥ 70%: pest or weed control at 500 ppm (Phakopsora pachyrhizi) | inhibition of growth at 300 ppm (Botrytis cinerea) | inhibition of growth at 300 ppm (Alternaria solani) | inhibition of growth at 300 ppm (Colletotrichum capsici) | inhibition of growth at 300 ppm (Fusarium culmorum) | inhibition of growth at 300 ppm [1] | inhibition of growth at 300 ppm (Pyricularia oryzae) | inhibition of growth at 300 ppm (Rhizoctonia solani)

CCN(C)C=Nc1cc(C)cc(Cc2ccc(C)cc2)c1Cl [Compound 18, N′-(2-chloro-5-methyl-3-(4-methylbenzyl)phenyl)-N-ethyl-N-methylformimidamide]
≥ 70%: pest or weed control at 500 ppm (Phakopsora pachyrhizi) | inhibition of growth at 300 ppm (Botrytis cinerea) | inhibition of growth at 300 ppm (Alternaria solani) | inhibition of growth at 300 ppm (Colletotrichum capsici) | inhibition of growth at 300 ppm (Fusarium culmorum) | inhibition of growth at 300 ppm [1] | inhibition of growth at 300 ppm (Pyricularia oryzae) | inhibition of growth at 300 ppm (Rhizoctonia solani)

CCN(C)C=Nc1cc(C)cc(Cc2ccc(Br)cc2)c1C [Compound 223, N′-(3-(4-bromobenzyl)-2,5-dimethylphenyl)-N-ethyl-N-methylformimidamide]
≥ 70%: pest or weed control at 500 ppm (Phakopsora pachyrhizi) | inhibition of growth at 300 ppm (Botrytis cinerea) | inhibition of growth at 300 ppm (Alternaria solani) | inhibition of growth at 300 ppm (Colletotrichum capsici) | inhibition of growth at 300 ppm (Fusarium culmorum) | inhibition of growth at 300 ppm [1] | inhibition of growth at 300 ppm (Pyricularia oryzae) | inhibition of growth at 300 ppm (Rhizoctonia solani)
